Source: paper PMC7413254 (Nature Communications, 2020)
Like-named read-outs stand apart in the source and are kept apart here.

What was measured:
PfCRT^3D7 [1] = biological target: T1, PfCRT^3D7 (Plasmodium falciparum, UniProt Q8IBZ9); test: cell-based; format: cell-based; conditions: PfCRT3D7 oocytes, total [3H]CQ transport, normalised to the oocyte type control
Outline: (§1)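 Radioactivity accumulated per oocyte, read by liquid scintillation after 10% SDS lysis, served as the uptake measure. Incubations ran 1.5 h at 27.5 °C in ND96 at pH 5.5, matching digestive-vacuole acidity.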

non-expressing oocytes [2] = format: cell-based, Xenopus laevis; conditions: non-expressing oocytes, total [3H]CQ transport, normalised to the oocyte type control
Outline: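 Oocytes (ten per treatment, ≥4 independent frogs/days) were preloaded by injecting VF-6 in 25 nL ND96 at pH 5.0, 5.5, 6.0 or 7.0, or Na^+-free choline buffer, then uptake run 1.5 h, 27.5 °C, ND96 pH 5.5 by default. Internal concentrations assumed ~400 nL oocyte volume.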

non-expressing oocytes [3] = test: cells; format: cell-based, Xenopus laevis; conditions: non-expressing oocytes, total [3H]CQ transport, normalised to the oocyte type control
Outline: as §1

PfNT1 = biological target: T2, PfNT1 (Plasmodium falciparum, UniProt Q8IDM6); test: cell-based; format: cell-based; conditions: PfNT1 oocytes, total [3H]CQ transport, normalised to the oocyte type control
T2 construct: expressed in transfected cells; host or cells: Xenopus laevis oocytes (stage V-VI), cRNA-injected
T2 sequence (Q8IDM6 whole entry): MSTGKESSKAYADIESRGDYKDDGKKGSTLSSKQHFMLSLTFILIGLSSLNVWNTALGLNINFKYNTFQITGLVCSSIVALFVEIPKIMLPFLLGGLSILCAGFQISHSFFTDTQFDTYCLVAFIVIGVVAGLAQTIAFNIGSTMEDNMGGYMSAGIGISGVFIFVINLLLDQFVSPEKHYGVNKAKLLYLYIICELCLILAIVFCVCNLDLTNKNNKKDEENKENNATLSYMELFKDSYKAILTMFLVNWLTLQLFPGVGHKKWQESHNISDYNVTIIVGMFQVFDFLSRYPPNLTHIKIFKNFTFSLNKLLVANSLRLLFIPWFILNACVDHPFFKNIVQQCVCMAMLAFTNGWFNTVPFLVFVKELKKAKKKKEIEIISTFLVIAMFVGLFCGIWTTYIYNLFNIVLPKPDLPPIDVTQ
Outline: (§2)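 Transport measured in Xenopus oocytes expressing the transporters, 1.5 h at 27.5 °C in ND96 pH 5.5 unless noted. For trans-stimulation, VF-6 injected in 25 nL ND96 at pH 5.0–7.0 or Na^+-free (choline) buffer; intracellular levels based on ~400 nL oocyte volume. Ten oocytes per treatment, ≥4 experiments.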

PfCRT^3D7 [4] = biological target: T1, PfCRT^3D7; test: cell-based; format: cell-based; conditions: for Uptake of [3H]CQ (% PfCRT3D7 control), trans-stimulation / PfCRT-mediated [3H]CQ transport, trans-stimulation (% PfCRT3D7 control): PfCRT3D7 oocytes; for Uptake of [3H]CQ (% PfCRT3D7 control), trans-stimulation: total [3H]CQ transport, normalised to the oocyte type control; for PfCRT-mediated [3H]CQ transport, trans-stimulation (% PfCRT3D7 control): normalised to oocyte type control
Outline: as §2

PfCRT^Ecu1110 [5] = biological target: T3, PfCRT^Ecu1110 (Plasmodium falciparum, UniProt Q9N623, A220S/I356L/K76T/N326D); test: cell-based; format: cell-based; conditions: for Uptake of [3H]CQ (% PfCRTEcu1110 control), trans-stimulation / PfCRT-mediated [3H]CQ transport, trans-stimulation (% PfCRTEcu1110 control): PfCRTEcu1110 oocytes; for Uptake of [3H]CQ (% PfCRTEcu1110 control), trans-stimulation: total [3H]CQ transport, normalised to the oocyte type control; for PfCRT-mediated [3H]CQ transport, trans-stimulation (% PfCRTEcu1110 control): normalised to oocyte type control; for [3H]CQ transport (% PfCRTDd2 control), trans-stimulation, PfCRTEcu1110: PfCRT-mediated component (background subtracted), sheet title says normalised to PfCRTDd2 control, mean ± SEM, SEM
T3 sequence (Q9N623 whole entry A220S/I356L/K76T/N326D): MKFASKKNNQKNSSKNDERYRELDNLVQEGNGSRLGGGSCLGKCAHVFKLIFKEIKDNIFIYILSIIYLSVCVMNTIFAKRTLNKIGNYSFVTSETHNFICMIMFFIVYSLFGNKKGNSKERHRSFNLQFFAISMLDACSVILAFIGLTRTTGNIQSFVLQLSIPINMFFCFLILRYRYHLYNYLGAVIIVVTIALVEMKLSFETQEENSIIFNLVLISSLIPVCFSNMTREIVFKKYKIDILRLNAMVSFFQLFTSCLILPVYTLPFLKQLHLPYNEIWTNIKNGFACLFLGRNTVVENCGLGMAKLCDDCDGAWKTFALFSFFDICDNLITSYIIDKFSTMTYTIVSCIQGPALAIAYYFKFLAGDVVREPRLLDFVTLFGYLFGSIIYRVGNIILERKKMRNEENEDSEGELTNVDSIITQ
Outline: as §2

PfCRT^Dd2 [6] = biological target: T4, PfCRT^Dd2 (Plasmodium falciparum, UniProt Q9N623, A220S/I356T/K76T/M74I/N326S/N75E/Q271E/R371I); test: cell-based; format: cell-based; conditions: for Uptake of [3H]CQ (% PfCRTDd2 control), trans-stimulation / PfCRT-mediated [3H]CQ transport, trans-stimulation (% PfCRTDd2 control): PfCRTDd2 oocytes; for Uptake of [3H]CQ (% PfCRTDd2 control), trans-stimulation: total [3H]CQ transport, normalised to the oocyte type control; for PfCRT-mediated [3H]CQ transport, trans-stimulation (% PfCRTDd2 control): normalised to oocyte type control; for [3H]CQ transport (% PfCRTDd2 control), trans-stimulation, PfCRTDd2: PfCRT-mediated component (background subtracted), mean ± SEM, SEM
T4 sequence (Q9N623 whole entry A220S/I356T/K76T/M74I/N326S/N75E/Q271E/R371I): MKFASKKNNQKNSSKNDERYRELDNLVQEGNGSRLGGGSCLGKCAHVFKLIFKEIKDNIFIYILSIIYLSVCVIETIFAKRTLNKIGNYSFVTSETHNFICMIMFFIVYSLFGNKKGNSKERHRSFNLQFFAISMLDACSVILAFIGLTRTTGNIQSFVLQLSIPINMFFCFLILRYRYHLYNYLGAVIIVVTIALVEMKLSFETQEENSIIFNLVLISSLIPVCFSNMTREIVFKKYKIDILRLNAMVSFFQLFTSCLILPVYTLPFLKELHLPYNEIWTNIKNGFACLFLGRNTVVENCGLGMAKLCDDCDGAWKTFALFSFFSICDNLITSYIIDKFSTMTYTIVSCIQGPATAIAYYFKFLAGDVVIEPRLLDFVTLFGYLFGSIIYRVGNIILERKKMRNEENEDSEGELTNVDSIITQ
Outline: as §2

PfCRT^Ecu1110 [7] = biological target: T3, PfCRT^Ecu1110; test: [3H]CQ uptake into Xenopus oocytes, cis-inhibition by unlabelled solute; format: cell-based; conditions: for Uptake of [3H]CQ (% PfCRTEcu1110 control), cis-inhibition / PfCRT-mediated [3H]CQ transport, cis-inhibition (% PfCRTEcu1110 control): PfCRTEcu1110 oocytes; for Uptake of [3H]CQ (% PfCRTEcu1110 control), cis-inhibition: total [3H]CQ transport, normalised to the oocyte type control; for PfCRT-mediated [3H]CQ transport, cis-inhibition (% PfCRTEcu1110 control): background [3H]CQ accumulation subtracted, normalised to oocyte type control; for [3H]CQ transport (% PfCRTEcu1110 control), cis-inhibition, PfCRTEcu1110: PfCRT-mediated component (background subtracted), sheet title says normalised to PfCRTDd2 control, mean ± SEM, SEM
Outline: as §1

PfCRT^Dd2 [8] = biological target: T4, PfCRT^Dd2; test: as above; format: cell-based; conditions: PfCRTDd2 oocytes, background [3H]CQ accumulation subtracted, normalised to oocyte type control
Outline: as §1

[9] = [test solute]i = 45 mM (30 mM for some solutes due to solubility)
[10] = [test solute]i = 5 mM (intracellular)
[11] = [test solute]i = 45 mM (intracellular; 30 mM for some solutes due to solubility)
[12] = [test solute]i = 5 mM (injected)

T1 sequence (Q8IBZ9 59-398): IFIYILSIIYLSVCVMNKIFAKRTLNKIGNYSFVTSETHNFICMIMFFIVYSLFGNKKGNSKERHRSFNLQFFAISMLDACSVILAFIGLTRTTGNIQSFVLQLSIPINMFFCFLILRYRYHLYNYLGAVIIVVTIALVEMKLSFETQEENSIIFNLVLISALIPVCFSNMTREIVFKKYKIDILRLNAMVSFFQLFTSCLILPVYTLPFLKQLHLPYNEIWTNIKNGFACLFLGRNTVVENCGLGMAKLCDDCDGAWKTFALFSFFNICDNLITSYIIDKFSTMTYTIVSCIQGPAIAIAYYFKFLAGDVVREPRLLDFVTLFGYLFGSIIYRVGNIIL

Substance: PHFD [PD-4]
- Uptake of [3H]CQ (% PfCRT3D7 control), cis-inhibition (PfCRT^3D7 [1]; [test solute] = 0.5 mM): 98 ± 5.6 % PfCRT3D7 control
- Uptake of [3H]CQ (% PfCRT3D7 control), cis-inhibition (PfCRT^3D7 [1]; [test solute] = 1 mM): 100 ± 5.5 % PfCRT3D7 control
- Uptake of [3H]CQ (% PfCRT3D7 control), cis-inhibition (PfCRT^3D7 [1]; [test solute] = 2 mM): 99 ± 3.5 % PfCRT3D7 control
- Uptake of [3H]CQ (% non-expressing oocyte control), trans-stimulation (non-expressing oocytes [2]; [test solute]i = 5 mM): 98 ± 2.0 % non-expressing oocyte control
- Uptake of [3H]CQ (% non-expressing oocyte control), trans-stimulation (non-expressing oocytes [2]; [9]): 99 ± 3.7 % non-expressing oocyte control
- Uptake of [3H]CQ (% non-expressing oocyte control), cis-inhibition (non-expressing oocytes [3]; [test solute] = 0.5 mM): 100 ± 4.3 % non-expressing oocyte control
- Uptake of [3H]CQ (% non-expressing oocyte control), cis-inhibition (non-expressing oocytes [3]; [test solute] = 1 mM): 100 ± 3.7 % non-expressing oocyte control
- Uptake of [3H]CQ (% non-expressing oocyte control), cis-inhibition (non-expressing oocytes [3]; [test solute] = 2 mM): 100 ± 4.6 % non-expressing oocyte control
- Uptake of [3H]CQ (% PfNT1 control), trans-stimulation (PfNT1; [test solute]i = 5 mM): 100 ± 3.5 % PfNT1 control
- Uptake of [3H]CQ (% PfNT1 control), trans-stimulation (PfNT1; [9]): 98 ± 2.2 % PfNT1 control
- Uptake of [3H]CQ (% PfCRT3D7 control), trans-stimulation (PfCRT^3D7 [4]; [test solute]i = 5 mM): 99 ± 3.6 % PfCRT3D7 control
- Uptake of [3H]CQ (% PfCRT3D7 control), trans-stimulation (PfCRT^3D7 [4]; [9]): 100 ± 2.1 % PfCRT3D7 control
- [3H]CQ transport (% PfCRT3D7 control), trans-stimulation, PfCRT3D7 (PfCRT^3D7 [4]; SEM): 0.1 ± 0.02
- PfCRT-mediated [3H]CQ transport, trans-stimulation (% PfCRT3D7 control) (PfCRT^3D7 [4]; [10]): 97 ± 2.9 % PfCRT3D7 control
- PfCRT-mediated [3H]CQ transport, trans-stimulation (% PfCRT3D7 control) (PfCRT^3D7 [4]; [11]): 98 ± 4.2 % PfCRT3D7 control
- Uptake of [3H]CQ (% PfCRTEcu1110 control), trans-stimulation (PfCRT^Ecu1110 [5]; [test solute]i = 5 mM): 98 ± 1.4 % PfCRTEcu1110 control
- Uptake of [3H]CQ (% PfCRTEcu1110 control), trans-stimulation (PfCRT^Ecu1110 [5]; [9]): 100 ± 3.5 % PfCRTEcu1110 control
- PfCRT-mediated [3H]CQ transport, trans-stimulation (% PfCRTEcu1110 control) (PfCRT^Ecu1110 [5]; [10]): 96 ± 3.2 % PfCRTEcu1110 control
- PfCRT-mediated [3H]CQ transport, trans-stimulation (% PfCRTEcu1110 control) (PfCRT^Ecu1110 [5]; [11]): 98 ± 4.3 % PfCRTEcu1110 control
- [3H]CQ transport (% PfCRTDd2 control), trans-stimulation, PfCRTEcu1110 (PfCRT^Ecu1110 [5]; [12]): 29 ± 1.4 % PfCRTEcu1110 control
- [3H]CQ transport (% PfCRTDd2 control), trans-stimulation, PfCRTEcu1110 (PfCRT^Ecu1110 [5]; [9]): 30 ± 1.6 % PfCRTEcu1110 control
- Uptake of [3H]CQ (% PfCRTDd2 control), trans-stimulation (PfCRT^Dd2 [6]; [test solute]i = 5 mM): 102 ± 2.4 % PfCRTDd2 control
- Uptake of [3H]CQ (% PfCRTDd2 control), trans-stimulation (PfCRT^Dd2 [6]; [9]): 99 ± 2.9 % PfCRTDd2 control
- PfCRT-mediated [3H]CQ transport, trans-stimulation (% PfCRTDd2 control) (PfCRT^Dd2 [6]; [10]): 100 ± 4.2 % PfCRTDd2 control
- PfCRT-mediated [3H]CQ transport, trans-stimulation (% PfCRTDd2 control) (PfCRT^Dd2 [6]; [11]): 97 ± 2.8 % PfCRTDd2 control
- [3H]CQ transport (% PfCRTDd2 control), trans-stimulation, PfCRTDd2 (PfCRT^Dd2 [6]; [12]): 100 ± 4.2 % PfCRTDd2 control
- [3H]CQ transport (% PfCRTDd2 control), trans-stimulation, PfCRTDd2 (PfCRT^Dd2 [6]; [9]): 97 ± 2.8 % PfCRTDd2 control
- Uptake of [3H]CQ (% PfCRTEcu1110 control), cis-inhibition (PfCRT^Ecu1110 [7]; [test solute] = 0.5 mM): 54 ± 3.1 % PfCRTEcu1110 control
- Uptake of [3H]CQ (% PfCRTEcu1110 control), cis-inhibition (PfCRT^Ecu1110 [7]; [test solute] = 1 mM): 38 ± 3.1 % PfCRTEcu1110 control
- Uptake of [3H]CQ (% PfCRTEcu1110 control), cis-inhibition (PfCRT^Ecu1110 [7]; [test solute] = 2 mM): 27 ± 0.8 % PfCRTEcu1110 control
- PfCRT-mediated [3H]CQ transport, cis-inhibition (% PfCRTEcu1110 control) (PfCRT^Ecu1110 [7]; [test solute] = 0.5 mM): 49 ± 2.1 % PfCRTEcu1110 control
- PfCRT-mediated [3H]CQ transport, cis-inhibition (% PfCRTEcu1110 control) (PfCRT^Ecu1110 [7]; [test solute] = 1 mM): 33 ± 1.5 % PfCRTEcu1110 control
- PfCRT-mediated [3H]CQ transport, cis-inhibition (% PfCRTEcu1110 control) (PfCRT^Ecu1110 [7]; [test solute] = 2 mM): 24 ± 1.1 % PfCRTEcu1110 control
- [3H]CQ transport (% PfCRTEcu1110 control), cis-inhibition, PfCRTEcu1110 (PfCRT^Ecu1110 [7]; [test solute] = 0.5 mM): 15 ± 0.5 % PfCRTEcu1110 control
- [3H]CQ transport (% PfCRTEcu1110 control), cis-inhibition, PfCRTEcu1110 (PfCRT^Ecu1110 [7]; [test solute] = 1 mM): 10 ± 0.1 % PfCRTEcu1110 control
- [3H]CQ transport (% PfCRTEcu1110 control), cis-inhibition, PfCRTEcu1110 (PfCRT^Ecu1110 [7]; [test solute] = 2 mM): 8.0 ± 0.06 % PfCRTEcu1110 control
- PfCRT-mediated [3H]CQ transport, cis-inhibition (% PfCRTDd2 control) (PfCRT^Dd2 [8]; [test solute] = 0.5 mM): 56 ± 1.1 % PfCRTDd2 control
- PfCRT-mediated [3H]CQ transport, cis-inhibition (% PfCRTDd2 control) (PfCRT^Dd2 [8]; [test solute] = 1 mM): 42 ± 0.5 % PfCRTDd2 control
- PfCRT-mediated [3H]CQ transport, cis-inhibition (% PfCRTDd2 control) (PfCRT^Dd2 [8]; [test solute] = 2 mM): 17 ± 0.7 % PfCRTDd2 control
